Source: publication PMC10477861, “Efficient Mining of Anticancer Peptides from Gut Metagenome” (Advanced Science, 2023)

How the values were obtained:
Conditions in all cases: 25 µM pACP, 24 h, maintenance medium 1% FBS, ratio of viability to vehicle (PBS), at least three technical repetitions
BT474 = experiment: MTT primary screening of anticancer activity, BT474; format: cell-based
Source text: (§1) We successfully chemically synthesized 40 pACPs for the purpose of in vitro or in vivo characterization of their potential anticancer efficacy. In the initial step, we conducted an in vitro primary screen of these 40 pACPs using a panel of 16 different cancer cell lines, including four human CRC lines (HT29, Caco2, HCT116, and […]), as well as 12 other cancer models (Table S4, Supporting Information). We deliberately selected a diverse panel of cell lines to assess the effect of pACPs across various genetic backgrounds. Briefly, the cancer cells were cultured in specific media (details provided in the Experimental Section) and then treated with pACPs at a final concentration of 25 µM. Peptides with minimum effective inhibition concentrations >25 µM were considered non‐ACPs. After exposure to pACPs, the survival rate of the cancer cells was measured using the MTT assay. Remarkably, 39 out of the 40 pACPs (97.5%) induced at least 20% inhibition in at least one cell line (Figure 3a and Table S5, Supporting Information). […] Thus, our method successfully identified pACPs with a very high rate of anticancer effects across various cancer cell lines.
(§2) To evaluate the activity of the 40 potentially effective pACPs, a panel of 16 cancer cell lines was treated, including human CRC cell lines (HT29, Caco‐2, HCT116). Details of the cell lines used, respective media, and culture conditions were presented in Table S1 (Supporting Information). Once the cells reached 60% confluence, it was incubated with each candidate peptide at a concentration of 25 µM pACPs for 24 h. Concurrently, the complete medium was replaced with a maintenance medium containing only 1% FBS. Subsequently, the viability of each cell line using the MTT Cell Proliferation and Cytotoxicity Assay Kit according to the manufacturer's instructions was assessed. […] For the CRC cell line CT26, it was calculated the CC50 value using two peptides (pACP1780 and pACP2283) with relevant data presented in Table S6 (Supporting Information). The calculation was performed using an online tool: https://www.aatbio.com/tools/ic50‐calculator.

Caco2 = experiment: MTT primary screening of anticancer activity, Caco2; format: cell-based, Human
Source text: as §1, §2

B16 = experiment: MTT primary screening of anticancer activity, B16; format: cell-based, Mouse
Source text: as §1, §2

T47D = experiment: MTT primary screening of anticancer activity, T47D; format: cell-based
Source text: as §1, §2

SK-BR-3 = experiment: MTT primary screening of anticancer activity, SK-BR-3; format: cell-based
Source text: as §1, §2

MDA-MB-436 = experiment: MTT primary screening of anticancer activity, MDA-MB-436; format: cell-based
Source text: as §1, §2

MDA-MB-468 = experiment: MTT primary screening of anticancer activity, MDA-MB-468; format: cell-based
Source text: as §1, §2

CT26 = experiment: MTT primary screening of anticancer activity, CT26; format: cell-based, Murine
Source text: as §1, §2

HCT116 = experiment: MTT primary screening of anticancer activity, HCT116; format: cell-based, Human
Source text: as §1, §2

HT29 = experiment: MTT primary screening of anticancer activity, HT29; format: cell-based, Human
Source text: as §1, §2

Hela = experiment: MTT primary screening of anticancer activity, Hela; format: cell-based, Human
Source text: as §1, §2

LCC = experiment: MTT primary screening of anticancer activity, LCC; format: cell-based
Source text: as §1, §2

EFM192A = experiment: MTT primary screening of anticancer activity, EFM192A; format: cell-based
Source text: as §1, §2

MDA-MB-231 = experiment: MTT primary screening of anticancer activity, MDA-MB-231; format: cell-based
Source text: as §1, §2

MDA-MB-453 = experiment: MTT primary screening of anticancer activity, MDA-MB-453; format: cell-based
Source text: as §1, §2

MCF7 = experiment: MTT primary screening of anticancer activity, MCF7; format: cell-based
Source text: as §1, §2

NLTPPSRRATSPIFCVAKHRGGVCECPTIPQGIGEGVKGHSPFEVEG [pACP1349]
Survival rate of cancer cells in primary screening (BT474): 1.00
Survival rate of cancer cells in primary screening (Caco2): 1.00
Survival rate of cancer cells in primary screening (B16): 0.66
Survival rate of cancer cells in primary screening (T47D): 0.62
Survival rate of cancer cells in primary screening (SK-BR-3): 1.00
Survival rate of cancer cells in primary screening (MDA-MB-436): 1.00
Survival rate of cancer cells in primary screening (MDA-MB-468): 1.00
Survival rate of cancer cells in primary screening (CT26): 1.00
Survival rate of cancer cells in primary screening (HCT116): 1.00
Survival rate of cancer cells in primary screening (HT29): 1.00
Survival rate of cancer cells in primary screening (Hela): 1.00
Survival rate of cancer cells in primary screening (LCC): 1.00
Survival rate of cancer cells in primary screening (EFM192A): 1.00
Survival rate of cancer cells in primary screening (MDA-MB-231): 1.00
Survival rate of cancer cells in primary screening (MDA-MB-453): 1.00
Survival rate of cancer cells in primary screening (MCF7): 1.00

NQRKRTACDRRRSICDERIAAGICKRNFRCKKYLKINGTIGLSIRLGKLG [pACP1381]
Survival rate of cancer cells in primary screening (BT474): 1.00
Survival rate of cancer cells in primary screening (Caco2): 0.69
Survival rate of cancer cells in primary screening (B16): 0.76
Survival rate of cancer cells in primary screening (T47D): 1.00
Survival rate of cancer cells in primary screening (SK-BR-3): 1.00
Survival rate of cancer cells in primary screening (MDA-MB-436): 1.00
Survival rate of cancer cells in primary screening (MDA-MB-468): 1.00
Survival rate of cancer cells in primary screening (CT26): 1.00
Survival rate of cancer cells in primary screening (HCT116): 1.00
Survival rate of cancer cells in primary screening (HT29): 0.69
Survival rate of cancer cells in primary screening (Hela): 1.00
Survival rate of cancer cells in primary screening (LCC): 1.00
Survival rate of cancer cells in primary screening (EFM192A): 1.00
Survival rate of cancer cells in primary screening (MDA-MB-231): 1.00
Survival rate of cancer cells in primary screening (MDA-MB-453): 1.00
Survival rate of cancer cells in primary screening (MCF7): 1.00

NSFCRQTALCSVALGQYRTKIVRQMRRQIFRQMKQKAE [pACP1403]
Survival rate of cancer cells in primary screening (BT474): 1.00
Survival rate of cancer cells in primary screening (Caco2): 1.00
Survival rate of cancer cells in primary screening (B16): 1.00
Survival rate of cancer cells in primary screening (T47D): 0.71
Survival rate of cancer cells in primary screening (SK-BR-3): 1.00
Survival rate of cancer cells in primary screening (MDA-MB-436): 1.00
Survival rate of cancer cells in primary screening (MDA-MB-468): 0.73
Survival rate of cancer cells in primary screening (CT26): 1.00
Survival rate of cancer cells in primary screening (HCT116): 1.00
Survival rate of cancer cells in primary screening (HT29): 1.00
Survival rate of cancer cells in primary screening (Hela): 1.00
Survival rate of cancer cells in primary screening (LCC): 1.00
Survival rate of cancer cells in primary screening (EFM192A): 1.00
Survival rate of cancer cells in primary screening (MDA-MB-231): 1.00
Survival rate of cancer cells in primary screening (MDA-MB-453): 1.00
Survival rate of cancer cells in primary screening (MCF7): 1.00

NTGGIQKIQPLRKTDPLLAPCVSGRIGCPGRRCS [pACP1412]
Survival rate of cancer cells in primary screening (BT474): 1.00
Survival rate of cancer cells in primary screening (Caco2): 1.00
Survival rate of cancer cells in primary screening (B16): 0.80
Survival rate of cancer cells in primary screening (T47D): 0.74
Survival rate of cancer cells in primary screening (SK-BR-3): 1.00
Survival rate of cancer cells in primary screening (MDA-MB-436): 1.00
Survival rate of cancer cells in primary screening (MDA-MB-468): 1.00
Survival rate of cancer cells in primary screening (CT26): 1.00
Survival rate of cancer cells in primary screening (HCT116): 1.00
Survival rate of cancer cells in primary screening (HT29): 1.00
Survival rate of cancer cells in primary screening (Hela): 1.00
Survival rate of cancer cells in primary screening (LCC): 1.00
Survival rate of cancer cells in primary screening (EFM192A): 1.00
Survival rate of cancer cells in primary screening (MDA-MB-231): 1.00
Survival rate of cancer cells in primary screening (MDA-MB-453): 1.00
Survival rate of cancer cells in primary screening (MCF7): 1.00
